Experimental data published in patent publication US9573956B2, “Compounds as dual inhibitors of phosphodiesterases and histone deacetylases” (FUNDACIÓN PARA LA INVESTIGACIÓN MÉDICA APLICADA, priority 2013, dated 2017).

Tests used:
PDE5A = biological target: T1, PDE5A (Homo sapiens, UniProt O76074); test: PDE enzyme activity assay (HTRF cGMP), PDE5A; type: biochemical; settings: recombinant enzyme; read-out: PDE5A1 inhibition (IC50)
T1 construct: they are full-length with N-terminal GST tag; GST (N); purchased BPS Biosciences 60050; host or cells: baculovirus infected Sf9 cells

HDAC1 = HDAC1 (Homo sapiens, UniProt Q13547); test: HDAC enzyme activity assay (fluorogenic substrate), HDAC1; type: biochemical; settings: recombinant enzyme; read-out: HDAC1 inhibition (IC50)
HDAC2 = biological target: T2, HDAC2 (Homo sapiens, UniProt Q92769); test: HDAC enzyme activity assay (fluorogenic substrate), HDAC2; type: biochemical; settings: recombinant enzyme; read-out: HDAC2 inhibition (IC50)
T2 construct: NM_001527; Cat. #50002) is full-length with C-terminal his tag; His (C); purchased BPS Biosciences 50002; host or cells: baculovirus infected Sf9 cells

HDAC3 = biological target: T3, HDAC3 (Homo sapiens, UniProt O15379); test: HDAC enzyme activity assay (fluorogenic substrate), HDAC3; type: biochemical; settings: recombinant enzyme; read-out: HDAC3 inhibition (IC50)
T3 construct: is full-length with C-terminal his tag and human NCOR2, N-terminal GST tag; His (C); purchased BPS Biosciences 50003; host or cells: baculovirus infected Sf9 cells

pCREB [1] = test: PDE activity in wild type primary neurons (Western blot pCREB); type: cell-based; settings: Mus musculus, Neuron, 0.5 h, 30 min, EC50 = 50% increase in pCREB over basal
acetylated-α-tubulin = test: AD-related markers in Tg2576 neurons: acetylated-tubulin; type: cell-based; settings: Mus musculus, Neuron, 48 h, treated two days, EC50 = 50% increase in acetylated-α-tubulin over basal, read-out: AcTub (EC50)
[2] = test system: carboxyl terminal fragment AβPP (C99); test: AD-related markers in Tg2576 neurons: APP processing (C99); type: cell-based; settings: Mus musculus, Neuron, 48 h, treated two days, EC50 = 50% decrease in C99 over basal
Description: The effects of the compounds on amyloid pathology were analysed in primary cultures (15 DIV) of neurons derived from the hippocampus and cortex of Tg2576 mouse embryos. Tg2576 mice express the human 695-aa isoform of APP (hAPP) containing the Swedish double mutation, which favours Aβ production. Neurons were treated for two days and collected at day 3, 24 h after the last treatment. First it was analysed the effect of the compounds on hAPP processing by the amyloidogenic pathway by measuring the carboxyl terminal fragment AβPP (C99), which is the precursor of Aβ42. In this case the reported EC50, Table 2 (below), means a 50% decrease in C99 levels over basal (saline, no treatment).
To analyze APP-derived fragments and p-tau levels in primary neuronal cultures, cells were collected in a buffer containing SDS (2%), Tris-HCl (10 mM, pH 7.4), protease inhibitors (1 mM PMSF and Complete Protease Inhibitor Cocktail: Roche Diagnostics) and phosphatase inhibitors (0.1 mM Na3VO4 and 1 mM NaF). The homogenates were sonicated for 2 min and centrifuged at 100,000×g for 1 h. Aliquots of the supernatant were frozen at −80° C. and their protein concentrations determined by the Bradford method using the Bio-Rad protein assay (Bio-Rad, Hercules, Calif., USA). Aliquots of the protein extracts were mixed with XT sample buffer plus XT reducing agent (Bio-Rad, Hercules, Calif., USA) and boiled for 5 min. Proteins were separated in a Criterion precast Bis-Tris 4-12% gradient precast gel (Bio-Rad, Hercules, Calif., USA) and transferred to a PVDF membrane with a removal rating of […] (Hybond LFP, Amersham Biosciences, Little Chalfont, UK). The membranes were blocked with 5% milk, 0.05% Tween-20 in PBS or TBS, and incubated overnight with the following primary antibodies in the corresponding buffers: mouse monoclonal anti-phosphotau AT8 (Pierce Biotechnology Inc., Rockford), mouse monoclonal anti-tau (clone Tau46, Sigma-Aldrich, St Louis, Mo.), 6E10 mouse monoclonal antibody (amino acids 1-17 of Aβ peptide; Millipore), mouse monoclonal anti-β-actin, mouse monoclonal anti-α-tubulin and mouse monoclonal anti-Acetylated-tubulin (Sigma). All antibodies were used at dilutions of 1:1,000 except for the mouse monoclonal anti-β-actin, anti-Acetylated-tubulin and anti-tubulin (1:50,000). Following two washes in TBS/Tween20 and one wash in TBS alone, immunolabelled protein bands were detected using HRP-conjugated anti-rabbit or anti-mouse antibodies (diluted 1:5,000: Santa Cruz). Binding was visualised by enhanced chemiluminescence (ECL, GE Healthcare Bioscience, Buckinghamshire, UK) and autoradiographic exposure to Hyperfilm ECL (GE Healthcare Bioscience), using Quantity One™ software v.4.6.3 (Bio-Rad) for quantification.

pCREB [3] = test: In-vivo activity, hippocampus of wild type mice: pCREB; design: species or system mouse; settings: i.p. 40 mg/kg, hippocampus one hour later
Description: (§1) To determine the ability of the compounds to inhibit HDAC and PDE in the brain, the compound was administered to wild type mice by i.p. at a dose of 40 mg/kg (n=3). Another group of animals received the vehicle (1/1/8, v:v:v, DMSO/Tween 20/saline). One hour later, mice were sacrificed by cervical dislocation and their hippocampus was quickly dissected from the brains.
(§2) Total tissue homogenates were obtained by homogenizing the hippocampus in a cold lysis buffer with protease inhibitors (0.2 M NaCl, 0.1 M HEPES, 10% glycerol, 200 mM NaF, 2 mM Na4P2O7, 5 mM EDTA, 1 mM EGTA, 2 mM DTT, 0.5 mM PMSF, 1 mM Na3VO4 and Complete Protease Inhibitor Cocktail, Roche Diagnostics). The homogenate was then centrifuged at 14,000×g at 4° C. for 20 min and the supernatant aliquoted and stored at −80° C. Total protein concentrations were determined using the BioRad Bradford protein assay (BioRad Laboratories). Protein samples were analyzed as described in the “in vitro” section.

AcH3 = test: In-vivo activity, hippocampus of wild type mice: AcH3; design: species or system mouse; settings: i.p. 40 mg/kg, hippocampus one hour later
Description: as §1, §2

T2 sequence (Q92769 whole entry): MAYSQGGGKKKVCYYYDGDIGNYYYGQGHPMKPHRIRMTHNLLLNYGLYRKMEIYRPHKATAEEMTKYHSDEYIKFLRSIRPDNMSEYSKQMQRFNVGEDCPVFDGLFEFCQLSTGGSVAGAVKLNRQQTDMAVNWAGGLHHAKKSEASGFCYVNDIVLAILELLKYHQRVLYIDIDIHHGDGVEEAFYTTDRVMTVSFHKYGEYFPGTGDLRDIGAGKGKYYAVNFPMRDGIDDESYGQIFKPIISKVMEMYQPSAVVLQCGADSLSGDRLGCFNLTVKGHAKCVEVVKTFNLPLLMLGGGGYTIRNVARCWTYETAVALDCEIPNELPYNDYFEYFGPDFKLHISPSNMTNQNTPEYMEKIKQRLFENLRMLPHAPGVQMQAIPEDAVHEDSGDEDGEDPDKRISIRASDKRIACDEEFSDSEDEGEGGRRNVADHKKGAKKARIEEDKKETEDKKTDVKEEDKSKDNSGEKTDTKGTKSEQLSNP
Sequence of HDAC1 (Q13547 whole entry): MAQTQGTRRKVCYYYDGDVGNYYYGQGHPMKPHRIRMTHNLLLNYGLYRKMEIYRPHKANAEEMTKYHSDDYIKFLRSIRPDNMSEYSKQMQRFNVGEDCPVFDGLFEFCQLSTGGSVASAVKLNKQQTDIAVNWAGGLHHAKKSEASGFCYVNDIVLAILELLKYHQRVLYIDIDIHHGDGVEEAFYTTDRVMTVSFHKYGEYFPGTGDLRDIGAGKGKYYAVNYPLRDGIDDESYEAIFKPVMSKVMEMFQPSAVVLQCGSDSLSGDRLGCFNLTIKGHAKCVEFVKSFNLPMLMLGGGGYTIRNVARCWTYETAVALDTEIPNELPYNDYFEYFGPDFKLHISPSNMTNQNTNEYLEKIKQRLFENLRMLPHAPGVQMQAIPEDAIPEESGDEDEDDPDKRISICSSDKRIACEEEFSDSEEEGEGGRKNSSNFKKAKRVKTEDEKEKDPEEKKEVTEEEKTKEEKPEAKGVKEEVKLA
T3 sequence (O15379 whole entry): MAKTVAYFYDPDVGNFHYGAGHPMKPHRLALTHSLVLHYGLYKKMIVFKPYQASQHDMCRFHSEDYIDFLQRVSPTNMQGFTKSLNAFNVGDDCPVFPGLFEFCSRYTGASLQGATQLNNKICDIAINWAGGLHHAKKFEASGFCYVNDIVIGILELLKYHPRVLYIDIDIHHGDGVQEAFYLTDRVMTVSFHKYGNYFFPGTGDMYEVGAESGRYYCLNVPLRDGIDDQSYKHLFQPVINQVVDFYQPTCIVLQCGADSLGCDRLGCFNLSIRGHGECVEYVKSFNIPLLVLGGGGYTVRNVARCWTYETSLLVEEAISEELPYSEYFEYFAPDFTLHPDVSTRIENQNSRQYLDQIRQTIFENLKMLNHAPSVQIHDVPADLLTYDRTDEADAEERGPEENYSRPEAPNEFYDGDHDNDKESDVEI
T3 sequence (Q9Y618 395-489 partner limits assumed): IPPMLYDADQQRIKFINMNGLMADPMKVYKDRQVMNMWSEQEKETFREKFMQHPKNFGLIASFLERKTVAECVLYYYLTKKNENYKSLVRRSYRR

| IC50 (PDE5A) | IC50 (HDAC1) | IC50 (HDAC2) | IC50 (HDAC3) | EC50 (pCREB [1]) | EC50 (acetylated-α-tubulin) | EC50 [2] | Structure (SMILES) | pCREB, increment in biological response vs basal (pCREB [3]) | AcH3, increment in biological response vs basal (AcH3) |
| --- | --- | --- | --- | --- | --- | --- | --- | --- | --- |
| < 0.01 µM | < 0.01 µM | 0.01 to 1 µM | 0.01 to 1 µM | 0.01 to 1 µM | 0.01 to 1 µM | 0.01 to 1 µM | CCCc1nn(C)c2c(=O)[nH]c(-c3cc(S(=O)(=O)N4CCN(c5ncc(C(=O)NO)cn5)CC4)ccc3OCC)nc12 [Example 1-06, 2-(4-[3-(6,7-Dihydro-1-methyl-7-oxo-3-propyl-1H-pyrazolo[4,3-d]pyrimidin-5-yl)-4-ethoxyphenylsulfonyl]piperazin-1-yl)-N-hydroxypyrimidine-5-carboxamide] | +++ (basal×2≦(+++)<basal×3) | +++ (basal×2≦(+++)<basal×3) |
| 0.01 to 1 µM | 0.01 to 1 µM | 1 to 10 µM | 1 to 10 µM | 0.01 to 1 µM | 0.01 to 1 µM | 0.01 to 1 µM | CCCc1nn(C)c2c(=O)[nH]c(-c3cc(Cc4ccc(C(=O)NO)cc4)ccc3OCC)nc12 [Example 1-15, 4-[[4-ethoxy-3-(1-methyl-7-oxo-3-propyl-6H-pyrazolo[4,3-d]pyrimidin-5-yl)phenyl]methyl]benzenecarbohydroxamic acid] | + (basal×1 means no increment (+)) | + (basal×1 means no increment (+)) |
| 0.01 to 1 µM | 0.01 to 1 µM | 0.01 to 1 µM | 0.01 to 1 µM | 0.01 to 1 µM | 0.01 to 1 µM | 0.01 to 1 µM | CCCc1nn(C)c2c(=O)[nH]c(-c3cc(CC4CC(C(=O)NO)C4)ccc3OCC)nc12 (racemic) [Example 1-19, 3-[[4-ethoxy-3-(1-methyl-7-oxo-3-propyl-6H-pyrazolo[4,3-d]pyrimidin-5-yl)phenyl]methyl]cyclobutanecarbohydroxamic acid] | +++ (basal×2≦(+++)<basal×3) | +++ (basal×2≦(+++)<basal×3) |
| 0.01 to 1 µM | 0.01 to 1 µM | 1 to 10 µM | 1 to 10 µM | 0.01 to 1 µM | 0.01 to 1 µM | 0.01 to 1 µM | CCCc1nn(C)c2c(=O)[nH]c(-c3cc(Cc4ccc(C(=O)NO)s4)ccc3OCC)nc12 [Example 1-16] | + (basal×1 means no increment (+)) | ++ (basal×1≦(++)<basal×2) |
